In patent publication US9650635B2, “Pharmaceutical compositions comprising small interfering RNA inhibitors of NOX3” (UNIVERSITY OF GENEVA, priority 2004, dated 2017):

Tests used:
Assay type in all cases: cell-based
[1] = molecular target: T1, NOX3/NOXO1/NOXA1 (Mus musculus, UniProt Q672J9, D161Y); assay: Superoxide production of HEK293 cells expressing NOX3/NOXO1/NOXA1 (luminol-amplified chemiluminescence)
T1 construct: expressed in transfected cells
Method: (§1) HEK293 were maintained in Dulbecco's Modified Eagle's Medium/Ham's Nutrient Mixture F12 that was supplemented with 10% fetal calf serum, penicillin (100 units/ml), streptomycin (100 μg/ml), and 4 mmol/liter L-glutamine. NOX3-, NOXO1-, NOXA1-, p47^phox, and p67^phox cDNAs were subcloned into pcDNA3.1 (Invitrogen, Groningen, Netherlands) and transfected into HEK293 cells with the Effectene transfection system (Qiagen). To obtain stable clones, NOX3, NOXO1, NOXA1-transfected HEK293 cells were selected with 400 μg/ml G418 starting on the 2nd day after the transfection. After 14 days of selection, 24 surviving clones were tested for superoxide production. The positive clones were verified to express NOX3-, NOXO1-, and NOXA1 RNA by RT-RCR.
(§2) ROS generation was measured by the peroxidase-dependent luminol-amplified chemiluminescence technique (referred to as luminol-amplified chemiluminescence) in 96 well microplates using Luminometer Wallac 1420 Multilabel Counter (PerkinElmer Life Sciences). Measurements were performed in Hanks' balanced salt solution supplemented with 1 mg/ml D-glucose, 1 unit/ml horseradish peroxidase, and 250 μM luminol. In some experiments, phorbol ester (PMA) was added during the measurements to 100 nM final concentration. When the effect of cisplatin or 5-Fluorouracil (5-FU) was investigated, these compounds were pre-incubated with the cells for the indicated time and concentration in cell culture medium. Before ROS measurements, the cell culture medium was exchanged with the assay solution and chemiluminescence or absorption (see below) was measured at 37° C. After measurements cells were counted, and the results were normalized to 150,000 cells. Extracellular superoxide production was measured in 96-well microplates at 550 nm as the SOD-sensitive reduction of 100 μM ferricytochrome C (referred to as cytochrome C reduction technique). The O^−2 production was calculated using an absorption coefficient of 21.1 mM^−1 cm^−1 and normalized to 10^7 cells.

[2] = molecular target: T2, NOX3 (Mus musculus, UniProt Q672J9, D161Y); assay: Superoxide production of HEK293 cells transfected with NOX3 alone (luminol-amplified chemiluminescence / Diogenes / cytochrome C reduction)
T2 construct: expressed in transfected cells; host or cells: HEK293, transient transfection, pcDNA3.1
T2 sequence (Q672J9 1-568 D161Y): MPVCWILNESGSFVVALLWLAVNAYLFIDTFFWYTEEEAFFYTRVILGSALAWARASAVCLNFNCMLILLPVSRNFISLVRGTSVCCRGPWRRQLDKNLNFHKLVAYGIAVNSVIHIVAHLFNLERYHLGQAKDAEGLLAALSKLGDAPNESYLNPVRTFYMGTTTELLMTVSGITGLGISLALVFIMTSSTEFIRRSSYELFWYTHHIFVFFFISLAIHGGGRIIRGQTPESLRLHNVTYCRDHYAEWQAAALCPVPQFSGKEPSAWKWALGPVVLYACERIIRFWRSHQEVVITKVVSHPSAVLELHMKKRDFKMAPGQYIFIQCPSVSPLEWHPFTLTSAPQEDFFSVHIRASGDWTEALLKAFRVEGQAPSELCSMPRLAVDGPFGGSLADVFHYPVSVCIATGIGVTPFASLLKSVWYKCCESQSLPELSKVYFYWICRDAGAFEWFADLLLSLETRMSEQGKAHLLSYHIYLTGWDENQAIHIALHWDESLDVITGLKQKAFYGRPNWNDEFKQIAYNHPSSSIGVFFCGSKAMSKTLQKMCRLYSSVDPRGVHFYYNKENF
T2 sequence (P13498 1-195 partner): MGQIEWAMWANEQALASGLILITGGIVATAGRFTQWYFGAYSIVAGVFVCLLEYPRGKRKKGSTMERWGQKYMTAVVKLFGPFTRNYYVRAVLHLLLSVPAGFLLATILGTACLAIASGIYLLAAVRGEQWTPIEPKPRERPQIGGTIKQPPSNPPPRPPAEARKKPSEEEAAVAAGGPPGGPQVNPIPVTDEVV
Method: as §1, §2

[3] = molecular target: T3, NOX3, p47^phox, and p67^phox (Mus musculus, UniProt Q672J9, D161Y); assay: Superoxide production of HEK293 cells co-transfected with NOX3, p47phox and p67phox
T3 construct: expressed in transfected cells; host or cells: HEK293, transient co-transfection, pcDNA3.1
T3 sequence (Q672J9 1-568 D161Y): T2 sequence (Q672J9 1-568 D161Y)
T3 sequence (P13498 1-195 partner): T2 sequence (P13498 1-195 partner)
Method: as §1, §2

[4] = system: HEK293 cells transfected with control vector (pcDNA3.1); assay: Superoxide production of HEK293 cells transfected with control vector; details: control-transfected (pcDNA3.1) HEK293 cells, 20 μM cisplatin, 12 hours
Method: as §1, with “The positive clones were verified to express NOX3-, NOXO1-, and NOXA1 RNA by RT-RCR.” left out
(§3) ROS generation was measured by the peroxidase-dependent luminol-amplified chemiluminescence technique (referred to as luminol-amplified chemiluminescence) in 96 well microplates using Luminometer Wallac 1420 Multilabel Counter (PerkinElmer Life Sciences). […] Before ROS measurements, the cell culture medium was exchanged with the assay solution and chemiluminescence or absorption (see below) was measured at 37° C. After measurements cells were counted, and the results were normalized to 150,000 cells. Extracellular superoxide production was measured in 96-well microplates at 550 nm as the SOD-sensitive reduction of 100 μM ferricytochrome C (referred to as cytochrome C reduction technique). […]

[5] = molecular target: T4, p47^phox, NOXA1, and NOX3 (Mus musculus, UniProt Q672J9, D161Y); assay: Superoxide production of HEK293 cells expressing p47phox, NOXA1 and NOX3; details: 100 nM PMA
T4 construct: expressed in transfected cells; host or cells: HEK293, transient co-transfection, pcDNA3.1
T4 sequence (Q672J9 1-568 D161Y): T2 sequence (Q672J9 1-568 D161Y)
T4 sequence (P13498 1-195 partner): T2 sequence (P13498 1-195 partner)
Method: as §1, with “The positive clones were verified to express NOX3-, NOXO1-, and NOXA1 RNA by RT-RCR.” left out
as §3

[6] = molecular target: T5, NOXO1, p67^phox, and NOX3 (Mus musculus, UniProt Q672J9, D161Y); assay: Superoxide production of HEK293 cells expressing NOXO1, p67phox and NOX3; details: 100 nM PMA
T5 construct: expressed in transfected cells; host or cells: HEK293, transient co-transfection, pcDNA3.1
T5 sequence (Q8NFA2 whole entry partner, one chain of several): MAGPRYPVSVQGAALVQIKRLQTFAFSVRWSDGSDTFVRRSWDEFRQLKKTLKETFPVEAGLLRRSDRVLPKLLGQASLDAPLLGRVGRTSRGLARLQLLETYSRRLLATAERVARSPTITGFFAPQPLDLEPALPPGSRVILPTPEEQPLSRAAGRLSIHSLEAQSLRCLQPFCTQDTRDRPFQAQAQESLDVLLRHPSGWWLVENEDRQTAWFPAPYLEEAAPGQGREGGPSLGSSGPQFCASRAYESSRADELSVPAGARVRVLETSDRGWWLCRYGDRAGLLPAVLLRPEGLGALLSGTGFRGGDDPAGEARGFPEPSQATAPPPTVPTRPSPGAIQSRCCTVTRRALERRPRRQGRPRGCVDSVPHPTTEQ
T5 sequence (P19878 whole entry partner, one chain of several): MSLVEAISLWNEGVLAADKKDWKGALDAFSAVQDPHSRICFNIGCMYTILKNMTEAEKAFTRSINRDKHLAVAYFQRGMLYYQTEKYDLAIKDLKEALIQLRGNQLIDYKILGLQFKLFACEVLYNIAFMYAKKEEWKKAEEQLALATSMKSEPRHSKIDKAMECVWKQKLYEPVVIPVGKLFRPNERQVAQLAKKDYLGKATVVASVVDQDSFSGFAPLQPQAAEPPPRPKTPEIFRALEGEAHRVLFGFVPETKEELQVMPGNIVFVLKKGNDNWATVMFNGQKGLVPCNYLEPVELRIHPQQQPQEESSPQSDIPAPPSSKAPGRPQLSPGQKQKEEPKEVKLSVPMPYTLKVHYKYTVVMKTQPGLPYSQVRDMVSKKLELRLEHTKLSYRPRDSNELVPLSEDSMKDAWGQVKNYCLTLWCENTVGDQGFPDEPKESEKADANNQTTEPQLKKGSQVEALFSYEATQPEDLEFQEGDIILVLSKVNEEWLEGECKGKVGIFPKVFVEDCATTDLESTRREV
Method: as §1, with “The positive clones were verified to express NOX3-, NOXO1-, and NOXA1 RNA by RT-RCR.” left out
as §3

[7] = stable clone, 12 hours incubation

T1 sequence (Q8NFA2 whole entry partner, one chain of several): as the sequence (Q8NFA2 whole entry partner, one chain of several) above
T1 sequence (Q86UR1 whole entry partner, one chain of several): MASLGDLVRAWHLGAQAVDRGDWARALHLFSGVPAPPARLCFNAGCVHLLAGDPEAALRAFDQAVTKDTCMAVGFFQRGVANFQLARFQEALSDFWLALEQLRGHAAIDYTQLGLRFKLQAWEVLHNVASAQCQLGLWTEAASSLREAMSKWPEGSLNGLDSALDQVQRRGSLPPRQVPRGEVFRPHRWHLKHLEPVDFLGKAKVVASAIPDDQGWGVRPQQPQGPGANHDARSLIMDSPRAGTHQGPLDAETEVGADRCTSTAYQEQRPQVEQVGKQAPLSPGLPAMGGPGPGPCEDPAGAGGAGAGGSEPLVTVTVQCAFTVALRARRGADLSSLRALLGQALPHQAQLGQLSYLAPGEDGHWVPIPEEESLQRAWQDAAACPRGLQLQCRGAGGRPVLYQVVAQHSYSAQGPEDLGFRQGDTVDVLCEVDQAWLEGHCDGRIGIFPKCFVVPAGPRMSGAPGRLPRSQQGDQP

c1ccc2c(c1)[I+]c1ccccc1-2 [DPI, diphenylene iodonium]
effect of DPI on superoxide generation ([1]; stable HEK293 clones, with or without cisplatin, 5 μM DPI): abolished | effect of DPI on superoxide generation ([2]; NOX3-transfected HEK293 cells, cisplatin and PMA treated, 5 μM DPI): blocked it completely | effect of DPI on superoxide production ([3]; cisplatin-treated cells, 5 μM DPI, not shown): blocked

N.N.[Cl][Pt][Cl] [Cisplatin]
effect of cisplatin on superoxide production ([1]; stable HEK293 clones, 20 μM cisplatin, 12 hours): marked increase of superoxide production | t50 of NOX3 activation ([1]; stable clone, 20 μM cisplatin): 11.5 ± 1.7 h | treatment time at which NOX3 activity is already enhanced ([1]; stable clone, 20 μM cisplatin): 5 h | treatment time to maximal effect ([1]; stable clone, 20 μM cisplatin): around 17 hours | concentration at which NOX3-dependent ROS generation is already increased [1, 7]: 1 µM | concentration with maximal effect on NOX3-dependent ROS generation [1, 7]: 20 µM | EC50 ([1]; stable clone, 12 hours incubation, read-out: EC50 of NOX3 activation): 3.6 µM | effect of cisplatin on superoxide production ([2]; NOX3-transfected HEK293 cells, 20 μM cisplatin, 12 hours, before PMA addition): elicited superoxide production | factor of enhancement of superoxide production ([3]; 20 μM cisplatin, 12 hours): approximately 3.3 | effect of cisplatin on superoxide production [4]: not in control-transfected cells

O=c1[nH]cc(F)c(=O)[nH]1 [5-fluorouracil, 5-Fluorouracil]
effect of 5-fluorouracil on superoxide production ([1]; 100 μM, 17 hours, data not shown): did not influence superoxide production

CCCCCCCCCCCCCC(=O)O[C@@H]1[C@@H](C)[C@@]2(O)[C@@H](C=C(CO)C[C@]3(O)C(=O)C(C)=C[C@@H]23)[C@@H]2C(C)(C)[C@]12OC(C)=O [PMA, phorbol 12-myristate 13-acetate]
effect of PMA on superoxide generation ([1]; NOX3/NOXO1/NOXA1 HEK293 cells, 100 nM PMA): insensitive to PMA | effect of PMA on superoxide generation after cisplatin ([2]; NOX3-transfected HEK293 cells pre-incubated with 20 μM cisplatin, 100 nM PMA): further increased superoxide generation | superoxide generation in the presence of PMA ([2]; NOX3-transfected HEK293 cells, no other subunits, 100 nM PMA): low amounts of superoxide | effect of PMA on superoxide production [5]: largely PMA-dependent | effect of PMA on NOX3 activity ([3]; 100 nM PMA): strong enhancement of NOX3 activity | effect of PMA on superoxide generation [6]: could not be further enhanced by PMA
